Assay results: patent US20050154037A1, “Methods of using zonisamide as an adjunctive therapy for partial seizures” (Eisai Co., Ltd., priority 2004, published 2005)

Key:
[1] = design: species or system patients; conditions: human, in vivo
From the text: The pharmacovigilance data that were collected, reviewed and analyzed provided the following information in respect of the incidence of NMS. To date, a total of 3 cases (two adult and one pediatric) fulfill the criteria of potential neuroleptic malignant syndrome. These cases were reviewed in detail for evaluation of possible safety signals. They were all deemed serious, and in all cases, the patients recovered with appropriate treatment.
Cases ZON1000813 and ZON1000929 are adult cases from Japan. In both cases the patients carried a diagnosis of Parkinson's disease (PD) and were enrolled in a double blind, placebo controlled […] study of zonisamide as a potential treatment for PD (Protocol AD81 ON-202-1). […]
Estimates of exposure, based upon retail and mail order prescriptions, indicate that the number of unique patients taking zonisamide capsules in the U.S. is about 37,276 (total prescriptions per year/average number of prescriptions per patient per year less a calculated percentage decrease based on estimated annual dropouts) in the time between approval in 2000 and December 2002. […] Similarly, the incidences of NMS estimated herein are unlikely to be higher than calculated. Based on the exposure data and number of NMS cases, the incidence of NMS in the U.S. and Japan is calculated to be about 1:37,276 unique patients and 1:592,588 unique patients, respectively.

[2] = NMS case reports: onset of symptoms after cessation of zonisamide therapy; format: in vivo, patients; conditions: person with Parkinson's Disease
From the text: Cases ZON1000813 and ZON1000929 are adult cases from Japan. In both cases the patients carried a diagnosis of Parkinson's disease (PD) and were enrolled in a double blind, placebo controlled […] study of zonisamide as a potential treatment for PD (Protocol AD81 ON-202-1). In both cases the development of NMS appeared after the withdrawal of zonisamide (from 2 days to 14 days, respectively). In the former case, the study blind was broken, and the patient was documented to be on study medication (zonisamide), while in the second case, the blind was not broken. Case ZON1000926 is a spontaneous pediatric case from the US. In all of these cases there were weak or no confounding factors present.
A person carried a diagnosis of Parkinson's Disease (PD). The patient was enrolled in a double-blind, placebo controlled Phase II study designed to assess the potential utility of zonisamide in the treatment of PD. The patient's symptoms of NMS appeared 2 days after cessation of zonisamide therapy. Patients with PD are known to be at a rare, but increased risk for NMS. But NMS can occur spontaneously. See Ueda, et al., Neurology, Vol. 52, pp. 777-781, 1999.
A person carried a diagnosis of Parkinson's Disease (PD). The patient was enrolled in a double-blind, placebo controlled Phase II study designed to assess the potential utility of zonisamide in the treatment of PD. […]

sodium channels = conditions: in vitro; cited from earlier work
[3] = tested on: voltage-dependent, transient inward currents (T-type Ca^2+ currents); conditions: in vitro; cited from earlier work
[4] = tested on: GABA/benzodiazepine receptor ionophore complex; conditions: cited from earlier work
[5] = tested on: cultured mouse spinal cord neurons; conditions: 10-30 μg/mL, cited from earlier work
rat hippocampal slices = conditions: 10-30 μg/mL; cited from earlier work
[6] = tested on: dopaminergic and serotonergic neurotransmission; conditions: in vivo microdialysis; cited from earlier work
hepatic enzyme = conditions: cited from earlier work
carbonic anhydrase = conditions: relative to acetazolamide; called weak; cited from earlier work

In the case of `NS(=O)(=O)Cc1noc2ccccc12` [zonisamide, 1,2-benzisoxazole-3-methanesulfonamide], the “cases that fulfill the criteria of potential neuroleptic malignant syndrome” value [1] is reported as 3 cases, the “incidence of NMS” value [1] is reported as “about 1:37,276 unique patients” and the “appearance of NMS symptoms after cessation of zonisamide therapy” value ([2]; Phase II study (Example 1)) is reported as 2 days. For the same compound, the “appearance of NMS symptoms after cessation of study medication” value ([2]; Phase II study, blind not broken (Example 2)) was 14 days, the “effect on sodium channels” value (sodium channels) was “blocks sodium channels” and the “effect on voltage-dependent, transient inward currents (T-type Ca2+ currents)” value [3] was “reduces”. The “changes in chloride flux” value [4] was “does not produce changes in chloride flux”, the “binding to the GABA/benzodiazepine receptor ionophore complex” value ([4]; in an allosteric fashion) was “binds” and the synaptically-driven electrical activity [5] was “suppresses”. For the same compound, the “postsynaptic GABA or glutamate responses” value ([5]; cultured mouse spinal cord neurons) was “without affecting”, the “neuronal or glial uptake of [3H]-GABA” value (rat hippocampal slices) was “without affecting” and the “dopaminergic and serotonergic neurotransmission” value [6] was “facilitates”. For the same compound, the hepatic enzyme induction (hepatic enzyme) was “not known to be a hepatic enzyme inducer” and the “carbonic anhydrase inhibition compared to acetazolamide” value (carbonic anhydrase) was 1/50.
